Measurements taken from the supplement of paper PMC11451515.

Test system: NOMO1
Test: cell viability relative to DMSO control; higher = less cytotoxic
Conditions: 48 h
In short: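 NOMO1 or SEM cells were plated at 500 cells/well and P12-Ichikawa cells at 1000 cells/well in 1536-well plates (5 μl), after each leukemia line had been adapted for at least four passages in each medium. Pin dosing delivered library compounds in DMSO at 11 threefold concentrations, 47 μM to 0.79 nM. CellTiter-Glo One luminescence was read after 48 h at 37°C. Viability is reported as a per-plate percentage of DMSO wells, with cell-free wells as background.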

[1] = HPLM + 10% dialyzed FBS, 0.000781 µM
[2] = HPLM + 10% dialyzed FBS, 0.00234 µM
[3] = HPLM + 10% dialyzed FBS, 0.00702 µM
[4] = HPLM + 10% dialyzed FBS, 0.0211 µM
[5] = HPLM + 10% dialyzed FBS, 0.0632 µM
[6] = HPLM + 10% dialyzed FBS, 0.19 µM
[7] = HPLM + 10% dialyzed FBS, 0.569 µM
[8] = HPLM + 10% dialyzed FBS, 1.71 µM
[9] = HPLM + 10% dialyzed FBS, 5.12 µM
[10] = HPLM + 10% dialyzed FBS, 15.4 µM
[11] = HPLM + 10% dialyzed FBS, 46.1 µM
[12] = RPMI 5 mM glucose + 10% FBS, 0.000781 µM
[13] = RPMI 5 mM glucose + 10% FBS, 0.00234 µM
[14] = RPMI 5 mM glucose + 10% FBS, 0.00702 µM
[15] = RPMI 5 mM glucose + 10% FBS, 0.0211 µM
[16] = RPMI 5 mM glucose + 10% FBS, 0.0632 µM
[17] = RPMI 5 mM glucose + 10% FBS, 0.19 µM
[18] = RPMI 5 mM glucose + 10% FBS, 0.569 µM
[19] = RPMI 5 mM glucose + 10% FBS, 1.71 µM
[20] = RPMI 5 mM glucose + 10% FBS, 5.12 µM
[21] = RPMI 5 mM glucose + 10% FBS, 15.4 µM
[22] = RPMI 5 mM glucose + 10% FBS, 46.1 µM
[23] = RPMI 5 mM glucose + 10% dialyzed FBS, 0.000781 µM
[24] = RPMI 5 mM glucose + 10% dialyzed FBS, 0.00234 µM
[25] = RPMI 5 mM glucose + 10% dialyzed FBS, 0.00702 µM
[26] = RPMI 5 mM glucose + 10% dialyzed FBS, 0.0211 µM
[27] = RPMI 5 mM glucose + 10% dialyzed FBS, 0.0632 µM
[28] = RPMI 5 mM glucose + 10% dialyzed FBS, 0.19 µM
[29] = RPMI 5 mM glucose + 10% dialyzed FBS, 0.569 µM
[30] = RPMI 5 mM glucose + 10% dialyzed FBS, 1.71 µM
[31] = RPMI 5 mM glucose + 10% dialyzed FBS, 5.12 µM
[32] = RPMI 5 mM glucose + 10% dialyzed FBS, 15.4 µM
[33] = RPMI 5 mM glucose + 10% dialyzed FBS, 46.1 µM

Row | SMILES | cell viability [1] [%] | cell viability [2] [%] | cell viability [3] [%] | cell viability [4] [%] | cell viability [5] [%] | cell viability [6] [%] | cell viability [7] [%] | cell viability [8] [%] | cell viability [9] [%] | cell viability [10] [%] | cell viability [11] [%] | cell viability [12] [%] | cell viability [13] [%] | cell viability [14] [%] | cell viability [15] [%] | cell viability [16] [%] | cell viability [17] [%] | cell viability [18] [%] | cell viability [19] [%] | cell viability [20] [%] | cell viability [21] [%] | cell viability [22] [%] | cell viability [23] [%] | cell viability [24] [%] | cell viability [25] [%] | cell viability [26] [%] | cell viability [27] [%] | cell viability [28] [%] | cell viability [29] [%] | cell viability [30] [%] | cell viability [31] [%] | cell viability [32] [%] | cell viability [33] [%]
1 | CN(C)CCc1c[nH]c2ccc(C[S+](=O)([O-])N3CCCC3)cc12 | 95.2 | 118 | 104 | 109 | 118 | 113 | 102 | 125 | 107 | 96.2 | 60.2 | 96.7 | 107 | 97.1 | 104 | 123 | 97.1 | 99.3 | 98.5 | 96.4 | 97.6 | 72.2 | 99.5 | 95.8 | 113 | 103 | 106 | 109 | 115 | 102 | 106 | 92 | 58.8
2 | C[C@H]1Oc2cc(cnc2N)-c2c(nn(C)c2C#N)CN(C)C(=O)c2ccc(F)cc21 |  |  |  |  |  |  |  |  |  |  |  | 106 | 132 | 125 | 108 | 119 | 126 | 123 | 123 | 131 | 106 | 101 |  |  |  |  |  |  |  |  |  |  | 
3 | N#C/C(=C1/Nc2ccccc2S1)c1ccnc(OCc2ccc(CN3CCOCC3)cc2)n1 | 104 | 120 | 97.1 | 127 | 122 | 122 | 107 | 84.9 | 86 | 25.2 | 27.5 | 104 | 109 | 105 | 117 | 113 | 115 | 109 | 101 | 103 | 13.4 | 13.7 | 112 | 105 | 96 | 120 | 109 | 114 | 111 | 99 | 86 | 18 | 14.6
4 | N[C@@H](Cc1ccc(O)c(O)c1)C(=O)O | 121 | 133 | 117 | 118 | 144 | 131 | 122 | 136 | 131 | 116 | 55.3 |  |  |  |  |  |  |  |  |  |  |  |  |  |  |  |  |  |  |  |  |  | 
5 | N=C(N)Nc1ccc(C(=O)Oc2ccc3cc(C(=N)N)ccc3c2)cc1 | 96.3 | 103 | 100 | 100 | 101 | 95.6 | 93.5 | 100 | 81.1 | 89.6 | 48 | 93.7 | 84.8 | 83.5 | 86.6 | 90.8 | 86 | 90.7 | 89.8 | 90.5 | 73.3 | 50.6 | 86 | 85.3 | 78.6 | 90.4 | 95.3 | 92.4 | 79.4 | 83.7 | 88.7 | 70.5 | 45.3
6 | CO[C@@H]1[C@@H](O)[C@H](O)[C@@H](n2c3c(Cl)cccc3c3c4c(c5c6cccc(Cl)c6[nH]c5c32)C(=O)NC4=O)O[C@H]1CO | 103 | 116 | 106 | 103 | 105 | 107 | 89.6 | 21.6 | 30.5 | 25.7 | 18.3 | 93.3 | 91.3 | 106 | 105 | 86.7 | 86.4 | 91.7 | 16.7 | 20.3 | 19.3 | 16.4 | 84.7 | 103 | 89.9 | 98.5 | 90.8 | 99.9 | 87.2 | 20.7 | 21.3 | 22.6 | 19.7
7 | CCCCCN(CCC12CC3CC(CC(C3)C1)C2)C(=O)NCCCc1ccncc1 | 111 | 120 | 116 | 114 | 115 | 109 | 108 | 93.7 | 111 | 112 | 97.3 | 98.2 | 110 | 107 | 110 | 116 | 113 | 97.8 | 113 | 96.5 | 107 | 98.4 | 104 | 102 | 119 | 120 | 116 | 107 | 116 | 111 | 116 | 94.1 | 99.1
8 | C[C@@H](N)C1CC[C@@H](CC1)C(=O)NC2=CC=NC=C2 (stereo not given in full) | 98.8 | 114 | 117 | 126 | 123 | 136 | 128 | 132 | 119 | 113 | 100 | 114 | 97.3 | 114 | 106 | 101 | 120 | 122 | 104 | 123 | 93.5 | 93.1 | 113 | 105 | 110 | 91 | 105 | 116 | 115 | 113 | 113 | 94.1 | 90
